Test results from ChEMBL document CHEMBL3044741, “Synthesis of novel biologically active methylene derivatives of sydnones” (Med Chem Res, 2013).
Values after ≈ are worked out from the molar mass of the structure shown.

How the values were obtained:
Candida albicans [1] = experiment: Antifungal activity against Candida albicans MTCC 227; assay type: functional
Aspergillus niger [2] = experiment: Antifungal activity against Aspergillus niger MTCC 282 at 250 ug/ml after 74 hrs by Kirby-Bauer method; assay type: functional; conditions: MTCC 282, 74 h, read-out: IZ
Streptococcus pyogenes [3] = experiment: Antibacterial activity against Streptococcus pyogenes MTCC 442 at 250 ug/ml after 24 hrs by Kirby-Bauer method; assay type: functional; conditions: MTCC 442, 24 h, read-out: IZ
Pseudomonas aeruginosa [4] = experiment: Antibacterial activity against Pseudomonas aeruginosa MTCC 424 after 24 hrs by broth dilution method; assay type: functional; conditions: MTCC 424, 24 h
[5] = Selectivity index, ratio of CC50 for human MT4 cells to IC50 for HIV1 3B; assay type: functional
[6] = tested on: Human immunodeficiency virus 2; experiment: Antiviral activity against HIV2 ROD infected in MT4 cells assessed as inhibition of virus-induced cytopathogenicity by MTT assay; assay type: functional, organism-based; conditions: Human immunodeficiency virus 2, ISOLATE ROD
Escherichia coli [7] = experiment: Antibacterial activity against Escherichia coli MTCC 443 after 24 hrs by broth dilution method; assay type: functional; conditions: MTCC 443, 24 h
Human alphaherpesvirus 3 [8] = experiment: Antiviral activity against thymidine kinase-deficient Varicella-zoster virus infected in HEL cells assessed as reduction in plaque formation; assay type: functional, organism-based; conditions: Human alphaherpesvirus 3, HEL
Cytomegalovirus [9] = experiment: Antiviral activity against Cytomegalovirus Davis in HEL cells assessed as reduction in plaque formation; assay type: functional, organism-based; conditions: Human betaherpesvirus 5, Davis
[10] = tested on: Human immunodeficiency virus 1; experiment: Antiviral activity against HIV1 3B infected in MT4 cells assessed as inhibition of virus-induced cytopathogenicity by MTT assay; assay type: functional, organism-based; conditions: Human immunodeficiency virus 1, 3B
Staphylococcus aureus [11] = experiment: Antibacterial activity against Staphylococcus aureus MTCC 96 after 24 hrs by broth dilution method; assay type: functional; conditions: MTCC 96, 24 h
Streptococcus pyogenes [12] = experiment: Antibacterial activity against Streptococcus pyogenes MTCC 442 after 24 hrs by broth dilution method; assay type: functional; conditions: MTCC 442, 24 h
Escherichia coli [13] = experiment: Antibacterial activity against Escherichia coli MTCC 443 at 250 ug/ml after 24 hrs by Kirby-Bauer method; assay type: functional; conditions: MTCC 443, 24 h, read-out: IZ
Pseudomonas aeruginosa [14] = experiment: Antibacterial activity against Pseudomonas aeruginosa MTCC 424 at 250 ug/ml after 24 hrs by Kirby-Bauer method; assay type: functional; conditions: MTCC 424, 24 h, read-out: IZ
[15] = Cytotoxicity against human HEL cells assessed as alteration in cell morphology; assay type: cell-based
Aspergillus clavatus [16] = experiment: Antifungal activity against Aspergillus clavatus MTCC 1323; assay type: functional
[17] = Cytotoxicity against human HEL cells; assay type: cell-based
Aspergillus niger [18] = experiment: Antifungal activity against Aspergillus niger MTCC 282; assay type: functional
Cytomegalovirus [19] = experiment: Antiviral activity against Cytomegalovirus AD-169 infected in HEL cells assessed as reduction in plaque formation; assay type: functional, organism-based; conditions: Human betaherpesvirus 5, AD-169, HEL
Candida albicans [20] = experiment: Antifungal activity against Candida albicans MTCC 227 at 250 ug/ml after 74 hrs by Kirby-Bauer method; assay type: functional; conditions: MTCC 227, 74 h, read-out: IZ
Human alphaherpesvirus 3 [21] = experiment: Antiviral activity against Varicella-zoster virus Oka expressing thymidine kinase infected in HEL cells assessed as reduction in plaque formation; assay type: functional, organism-based; conditions: Human alphaherpesvirus 3, strain Oka vaccine
Aspergillus clavatus [22] = experiment: Antifungal activity against Aspergillus clavatus MTCC 1323 at 250 ug/ml after 74 hrs by Kirby-Bauer method; assay type: functional; conditions: MTCC 1323, 74 h, read-out: IZ
[23] = Cytotoxicity against human MT4 cells by MTT assay; assay type: cell-based
[24] = Selectivity index, ratio of CC50 for human MT4 cells to IC50 for HIV2 ROD; assay type: functional
Staphylococcus aureus [25] = experiment: Antibacterial activity against Staphylococcus aureus MTCC 96 at 250 ug/ml after 24 hrs by Kirby-Bauer method; assay type: functional; conditions: MTCC 96, 24 h, read-out: IZ

SMILES	MIC (Candida albicans [1]) [µg/mL]	zone of inhibition at 250 µg/mL (Aspergillus niger [2]) [mm]	zone of inhibition at 250 µg/mL (Streptococcus pyogenes [3]) [mm]	MIC (Pseudomonas aeruginosa [4]) [µg/mL]	Ratio CC50/IC50 [5]	IC50 [6] [µg/mL]	MIC (Escherichia coli [7]) [µg/mL]	EC50 (Human alphaherpesvirus 3 [8]) [µg/mL]	EC50 (Cytomegalovirus [9]) [µg/mL]	IC50 [10] [µg/mL]	MIC (Staphylococcus aureus [11]) [µg/mL]	MIC (Streptococcus pyogenes [12]) [µg/mL]	zone of inhibition at 250 µg/mL (Escherichia coli [13]) [mm]	zone of inhibition at 250 µg/mL (Pseudomonas aeruginosa [14]) [mm]	MCC [15] [µg/mL]	MIC (Aspergillus clavatus [16]) [µg/mL]	CC50 [17] [µg/mL]	MIC (Aspergillus niger [18]) [µg/mL]	EC50 (Cytomegalovirus [19]) [µg/mL]	zone of inhibition at 250 µg/mL (Candida albicans [20]) [mm]	other results
CC(=O)N1CCN(Cc2c([O-])on[n+]2-c2ccc(C)cc2)CC1	200 (≈ 632 µM)	26	21	500 (≈ 1580 µM)	<1	> 17.3	250 (≈ 790 µM)	> 20	> 20	> 17.3	500 (≈ 1580 µM)	100 (≈ 316 µM)	19	17	100	200 (≈ 632 µM)	24.9 (≈ 78.7 µM)	200 (≈ 632 µM)	> 20	22	EC50 (Human alphaherpesvirus 3 [21]): > 20 µg/mL; zone of inhibition at 250 µg/mL (Aspergillus clavatus [22]): 24 mm; CC50 [23]: 17.3 µg/mL (≈ 54.6 µM); Ratio CC50/IC50 [24]: <1; zone of inhibition at 250 µg/mL (Staphylococcus aureus [25]): 17 mm
[O-]c1on[n+](-c2ccc(Cc3ccc(-[n+]4noc([O-])c4CN4CCCCC4)cc3)cc2)c1CN1CCCCC1	500 (≈ 942 µM)	23	20	125 (≈ 236 µM)	<1	> 12	500 (≈ 942 µM)	> 4	20 (≈ 37.7 µM)	> 12	250 (≈ 471 µM)	125 (≈ 236 µM)	16	20	≥ 20	500 (≈ 942 µM)	12.6 (≈ 23.7 µM)	250 (≈ 471 µM)	> 4	22	EC50 (Human alphaherpesvirus 3 [21]): > 4 µg/mL; zone of inhibition at 250 µg/mL (Aspergillus clavatus [22]): 21 mm; CC50 [23]: 12.1 µg/mL (≈ 22.7 µM); Ratio CC50/IC50 [24]: <1; zone of inhibition at 250 µg/mL (Staphylococcus aureus [25]): 18 mm
CC(=O)N1CCN(Cc2c([O-])on[n+]2-c2ccc(Cc3ccc(-[n+]4noc([O-])c4CN4CCN(C(C)=O)CC4)cc3)cc2)CC1	250 (≈ 405 µM)	21	16	200 (≈ 324 µM)	<1	> 12	250 (≈ 405 µM)	> 0.8	> 4	> 12	250 (≈ 405 µM)	100 (≈ 162 µM)	18	18	20	250 (≈ 405 µM)	10.2 (≈ 16.5 µM)	1000 (≈ 1620 µM)	> 4	23	EC50 (Human alphaherpesvirus 3 [21]): > 0.8 µg/mL; zone of inhibition at 250 µg/mL (Aspergillus clavatus [22]): 25 mm; CC50 [23]: 12 µg/mL (≈ 19.4 µM); Ratio CC50/IC50 [24]: <1; zone of inhibition at 250 µg/mL (Staphylococcus aureus [25]): 20 mm
Cc1ccc(-[n+]2noc([O-])c2CN2CCCCC2)cc1	250 (≈ 915 µM)	24	18	250 (≈ 915 µM)	<1	> 18.7	100 (≈ 366 µM)	> 20	> 20	> 18.7	500 (≈ 1830 µM)	200 (≈ 732 µM)	21	21	100	250 (≈ 915 µM)	28.5 (≈ 104 µM)	500 (≈ 1830 µM)	> 20	21	EC50 (Human alphaherpesvirus 3 [21]): > 20 µg/mL; zone of inhibition at 250 µg/mL (Aspergillus clavatus [22]): 25 mm; CC50 [23]: 18.7 µg/mL (≈ 68.3 µM); Ratio CC50/IC50 [24]: <1; zone of inhibition at 250 µg/mL (Staphylococcus aureus [25]): 16 mm
[O-]c1on[n+](-c2ccc(Cc3ccc(-[n+]4noc([O-])c4CN4CCN(c5cccc(Cl)c5Cl)CC4)cc3)cc2)c1CN1CCN(c2cccc(Cl)c2Cl)CC1	1000 (≈ 1220 µM)	23	18	250 (≈ 304 µM)	<1	> 20.8	125 (≈ 152 µM)	> 4	> 20	> 20.8	125 (≈ 152 µM)	200 (≈ 243 µM)	21	17	100	1000 (≈ 1220 µM)	28.7 (≈ 34.9 µM)	250 (≈ 304 µM)	12.6 (≈ 15.3 µM)	21	EC50 (Human alphaherpesvirus 3 [21]): > 4 µg/mL; zone of inhibition at 250 µg/mL (Aspergillus clavatus [22]): 23 mm; CC50 [23]: 20.8 µg/mL (≈ 25.3 µM); Ratio CC50/IC50 [24]: <1; zone of inhibition at 250 µg/mL (Staphylococcus aureus [25]): 21 mm
[O-]c1on[n+](-c2ccc(Cc3ccc(-[n+]4noc([O-])c4CN4CCNCC4)cc3)cc2)c1CN1CCNCC1	1000 (≈ 1880 µM)	23	17	100 (≈ 188 µM)	<1	> 14	62.5 (≈ 117 µM)	> 4	20 (≈ 37.6 µM)	> 14	200 (≈ 376 µM)	500 (≈ 939 µM)	21	21	100	1000 (≈ 1880 µM)	20 (≈ 37.6 µM)	250 (≈ 469 µM)	11.7 (≈ 22 µM)	21	EC50 (Human alphaherpesvirus 3 [21]): > 4 µg/mL; zone of inhibition at 250 µg/mL (Aspergillus clavatus [22]): 19 mm; CC50 [23]: 14 µg/mL (≈ 26.3 µM); Ratio CC50/IC50 [24]: <1; zone of inhibition at 250 µg/mL (Staphylococcus aureus [25]): 18 mm
Cc1ccc(-[n+]2noc([O-])c2CN2CCN(C)C(c3ccccc3)C2)cc1 (stereo not given)	200 (≈ 549 µM)	18	21	100 (≈ 274 µM)	<1	> 14.4	500 (≈ 1370 µM)	> 20	> 20	> 14.4	250 (≈ 686 µM)	100 (≈ 274 µM)	16	21	100	200 (≈ 549 µM)	23.7 (≈ 65 µM)	1000 (≈ 2740 µM)	> 20	18	EC50 (Human alphaherpesvirus 3 [21]): > 20 µg/mL; zone of inhibition at 250 µg/mL (Aspergillus clavatus [22]): 21 mm; CC50 [23]: 14.4 µg/mL (≈ 39.5 µM); Ratio CC50/IC50 [24]: <1; zone of inhibition at 250 µg/mL (Staphylococcus aureus [25]): 19 mm
CN1CCN(Cc2c([O-])on[n+]2-c2ccc(Cc3ccc(-[n+]4noc([O-])c4CN4CCN(C)C(c5ccccc5)C4)cc3)cc2)CC1c1ccccc1 (stereo not given)	500 (≈ 701 µM)	20	18	250 (≈ 351 µM)	<1	> 14	100 (≈ 140 µM)	> 20	> 20	> 14	500 (≈ 701 µM)	250 (≈ 351 µM)	21	18	100	500 (≈ 701 µM)	36.8 (≈ 51.6 µM)	1000 (≈ 1400 µM)	> 20	18	EC50 (Human alphaherpesvirus 3 [21]): > 20 µg/mL; zone of inhibition at 250 µg/mL (Aspergillus clavatus [22]): 23 mm; CC50 [23]: 14 µg/mL (≈ 19.6 µM); Ratio CC50/IC50 [24]: <1; zone of inhibition at 250 µg/mL (Staphylococcus aureus [25]): 16 mm
Cc1ccc(-[n+]2noc([O-])c2CN2CCN(c3cccc(Cl)c3Cl)CC2)cc1	250 (≈ 596 µM)	21	19	1000 (≈ 2380 µM)	<1	> 31.7	125 (≈ 298 µM)	> 4	> 4	> 31.7	500 (≈ 1190 µM)	200 (≈ 477 µM)	21	16	20	250 (≈ 596 µM)	28.8 (≈ 68.7 µM)	500 (≈ 1190 µM)	4 (≈ 9.54 µM)	18	EC50 (Human alphaherpesvirus 3 [21]): > 4 µg/mL; zone of inhibition at 250 µg/mL (Aspergillus clavatus [22]): 23 mm; CC50 [23]: 31.7 µg/mL (≈ 75.6 µM); Ratio CC50/IC50 [24]: <1; zone of inhibition at 250 µg/mL (Staphylococcus aureus [25]): 17 mm
Cc1ccc(-[n+]2noc([O-])c2CN2CCN(C)CC2)cc1	500 (≈ 1730 µM)	21	20	100 (≈ 347 µM)	<1	> 12.7	250 (≈ 867 µM)	> 20	> 20	> 12.9	500 (≈ 1730 µM)	100 (≈ 347 µM)	18	21	100	500 (≈ 1730 µM)	25.6 (≈ 88.8 µM)	500 (≈ 1730 µM)	> 20	18	EC50 (Human alphaherpesvirus 3 [21]): > 20 µg/mL; zone of inhibition at 250 µg/mL (Aspergillus clavatus [22]): 21 mm; CC50 [23]: 12.7 µg/mL (≈ 44 µM); Ratio CC50/IC50 [24]: <1; zone of inhibition at 250 µg/mL (Staphylococcus aureus [25]): 16 mm
